# Tests used:
# [1] = system: human beta cell line (1.1B4); experiment: Insulin mRNA and DRiP protein expression in beta cell line under stress; format: cell-based; conditions: 1.1B4 cells stressed with TG
# Description: FIGS. 22A-B illustrates ex vivo cleavage of insulin mRNA in a cell line. FIG. 22A is a bar graph illustrating insulin mRNA expression change when beta cells are stressed with Thapsigargin (TG). FIG. 22B is a bar graph illustrating DRiP protein expression when beta cells are stressed with TG.
# Ex vivo insulin mRNA expression and DRiP protein expression in beta cell line under stress. Ex vivo cleavage of insulin mRNA was examined in a 1.1B4 cell line. A human beta cell line (1.1B4) was stressed with Thapsigargin (chemical), with or without inhibition of IRE1, followed by analysis of the insulin mRNA expression and DRiP protein expression. […] But it is not enough to prevent an increase in DRiP expression. The protective SNP may have this effect ex vivo.
# [2] = system: 293T cells transfected with INS-DRiP-GFP; experiment: Effect of ER stress inducers on DRiP expression in INS-DRiP-GFP transfected cells; format: cell-based, human; conditions: western blot and flow cytometry
# Description: FIG. 8A is a western blot of 293T cell lysates (left to right) in nontransfected cells (NT), or cells transfected with INS-DRiP-GFP that were untreated (−), stimulated with thapsigargin (TG), or stimulated with tunicamycin (TM). The western blot in FIG. 8A is labeled using anti-GFP, anti-insulin, and anti-actin antibodies. FIG. 8B is a chart depicting densitometry analyses of the western blot in FIG. 8A analyzing the GFP (black bars) and insulin bands (gray bars) and shown as induction ratio±s.d. where the intensity of the nontreated cells was used as reference (right).
# The effect of endoplasmic reticulum stress (ER stress) on translation initiation was also determined. Cells transfected with INS-DRiP-GFP were stimulated with the ER stress-inducers thapsigargin (TG) or tunicamycin (TM).
# [3] = system: cells transfected with INS-DRiP-GFP vectors; experiment: DRiP-GFP expression from INS-DRiP-GFP vectors; format: cell-based; conditions: both variants
# Description: Method: Two vectors of INS-DRiP-GFP (one of the protective genotype and one of the susceptible genotype) that express insulin and DRiP linked to GFP were created (FIG. 28). The vectors were transfected into cells, and GFP expression was observed when translation is started at the DRiP start codon.
# [4] = target: HLA-DQ8trans (Homo sapiens, UniProt P01909+P01920, A45G/D89A/E77G/H199R/N214S/Y58L); conditions: cell-free; cited from earlier work
# [5] = system: HLA-A2; conditions: cited from earlier work
# [6] = target: HLA-DQ8cis (Homo sapiens, UniProt P01909+P01920, A209T/A45G/C70Q/D89A/E183D/E77G/F237L/G63E/H199R/I129T/K197E/L178F/L74F/L98V/Q57E/Q76R/S185I/S97I/T217I/T49S/V73L/Y58L); conditions: cell-free; cited from earlier work
# [7] = target: HLA-DQ2trans (Homo sapiens, UniProt P01909+P01920, A45G/A70V/C70Q/D89A/E106A/E183D/E77G/E98D/G63E/H199R/I129T/K197E/L107V/L178F/L74F/L98V/N214S/P84L/P87L/Q57E/Q76R/S185I/S97I/T103K/T109R/T172A/T49S/T60S/V73L/V78E/V99I/Y58L/Y62S/Y69I/Y79F); conditions: cell-free; cited from earlier work
# [8] = target: HLA-DQ2cis (human, UniProt P01909 24-216, limits assumed); experiment: cell-free HLA-DQ binding studies
# [9] = target: T1, HLA-DQ8trans (human, UniProt P01909 24-216; P01920 33-230, limits assumed); experiment: cell-free HLA-DQ binding studies
# T1 construct: Formed by the alpha-chain of HLA-DQ2 (DQA1*05:01) and the beta-chain of HLA-DQ8 (DQB1*03:02) (so in the source)
# T1 MHC II alpha: not shown
# T1 MHC II beta: not shown
# [10] = target: T2, HLA-DQ2trans (human, UniProt P01909 24-216, limits assumed); experiment: cell-free HLA-DQ binding studies
# T2 construct: Formed by the alpha-chain of HLA-DQ8 (DQA1*03:01) and the beta-chain of HLA-DQ2 (DQB1*02:01) (so in the source)
# T2 MHC II alpha: not shown
# T2 MHC II beta: not shown
# [11] = target: T3, HLA-DQ8cis (human, UniProt P01909 24-216; P01920 33-230, limits assumed); experiment: cell-free HLA-DQ binding studies
# T3 MHC II alpha: not shown
# T3 MHC II beta: not shown
molecule,measurement,setting,value
"C/C=C(/C)C(=O)O[C@H]1C(C)=C2[C@H]([C@@H]1OC(=O)CCCCCCC)[C@@](C)(OC(C)=O)C[C@H](OC(=O)CCC)[C@@]1(O)[C@H]2OC(=O)[C@@]1(C)O [TG, thapsigargin]",DRiP protein expression,[1],goes up
same,insulin RNA expression,[1]; with or without IRE1 inhibition,goes down
same,expression of DRiP polypeptide,[2],increased
same,effect on DRiP-GFP expression,[3],increased in both variants
MLYQHLLPL [INS-DRiP1-9],binding affinity to HLA-DQ8trans,[4],strong binding affinity
same,binding to HLA-A2,[5],high affinity
same,binding affinity to HLA-DQ8cis,[6],strong binding affinity
same,binding affinity to HLA-DQ2trans,[7],not
tunicamycin [TM],expression of DRiP polypeptide,[2],increased by TG but not TM
MLYQHLLPL (Synthetic counterpart of the N-terminal 9-mer of INS-DRiP; also called 9-mer peptide; INS-DRiP peptide fragment) [INS-DRiP1-9 epitope MLYQHLLPL],binding result,[8],no binding
same,binding result,[9],binds
same,binding result,[10],no binding
same,binding result,[11],binds
